{"source": "patent US20160346389A1", "about": "“MODIFIED PARAMAGNETIC NANOPARTICLES FOR TARGETED DELIVERY OF THERAPEUTICS AND METHODS THEREOF” (ALBERT EINSTEIN COLLEGE OF MEDICINE INC., priority 2013, published 2016)", "key": {"[1]": {"system": "U87 human glioblastoma cells", "experiment": "Cell viability assay, Presto Blue, 48 h", "type": "cell-based", "description": "FIG. 22 Cytotoxicity of naked curcumin, curcumin conjugated PMNPs and Sol-Gel Nps and blanks (without curcumin) performed on U87 human glioblastoma cells after 48 hours of incubation. Note that 1 μM equivalent curcumin concentration corresponds to 16.7 μg/mL of nanoparticles. […] The data represents the mean±SE, n=3 to 18.\nCells were plated in 24-well trays and allowed to become confluent then incubated with naked curcumin or different curcumin NP concentrations for 48 h. Cell viability was quantified using Presto Blue (Invitrogen) an assay that contains a cell permeable resazurin-based solution that is modified by the reducing environment of the viable cell becoming highly fluorescent. Using a plate reader, cell viability was quantified after 0.5-1 hours of incubation with Presto Blue. All measurements were always accompanied by control wells and by calibration wells to account for background fluorescence using the same culture media and the same NP concentrations without the cells."}, "[2]": {"system": "human breast cancer xenographs", "experiment": "MRI of magnetic field induced localization of PMNPs in breast cancer xenograft mice", "type": "in vivo, mouse", "description": "FIGS. 3(A-D). […] By applying a magnet field for 30 minutes at hind end (blue arrows), the enhanced image of hind-end tumor is observed (3B). The enhanced image of the tumor persists for at least several hours. […] The PMNPs are concentrated at site of a lower abdominal mammary tumor (FIG. 3C) using an external magnetic field placed over the tumor for 30 minutes. […] Imaging was performed over several hours without taking the mouse out of MRI machine thereby maintaining all of the imaging parameters.\nFIGS. 4(A-B). Compares the MRI contrast data between […] and gadolinium oxide-based PMNPs.\nIn FIG. 3 are presented results on magnetic immobilization of gadolinium-based PMNPs in a mouse with numerous human breast cancer xenographs. There is no image enhancement for any of the multiple tumors located in different parts of the mouse including one at hind end (green-arrow at bottom of the picture marked tumor). The mouse was then removed and then subjected to thirty minutes of having a magnetic field placed over the tumor demarked by the green arrow. […] The intensity of MRI signal is very similar at both tumor and bladder. This is very different than observed in case of […] where there is a transient image of the bladder and no site specific localization of the contrast agent in any one of the tumors. […]"}, "[3]": {"experiment": "Radiation protection by localized melanin", "type": "in vivo, rat", "details": "earlier studies", "from_the_text": "The same protocol used for curcumin also works for melanin resulting in melanin loaded OA-PMNPs. These particles have potential use as radioprotectants. The melanin loaded OA-PMNPs would be infused into the patient and then magnetically localized in healthy tissue surrounding the diseased tissue targeted for radiation treatment. […] Additionally melanin loaded PMNP can be used as targeted contrast agent for photo-acoustic based imaging."}, "[4]": {"system": "MoB-1833 mammary xenografted tumor", "experiment": "ADM-PMNP plus magnetic field on xenografted human breast cancer, bioluminescence", "type": "in vivo, mouse", "details": "comparable amount of free drug", "description": "FIG. 8 Anti-tumor effect of IV infused Adriamycin loaded PMNP (ADM-PMNP) plus magnetic field treatment on xenografted human breast cancer. Human breast cancer was s.c. xenografted in a female nude mouse. The mouse was injected with 1 mg/kg ADM-PMNP and the tumor was treated with magnetic field for 30 minutes following each injection The mouse was imaged before and after the treatment, the luminescent signals were quantitatively analyzed for change of tumor size. At the end of the treatment, there was a >80% decrease of luminescent signaling in the tumor. The signal recovered partially 3 days after the treatment was ended.\nSignal intensity in treated tumor was similar to that in bladder, a major route of PMNP elimination. Next, to assess drug delivery and anti-tumor efficacy, MoB-1833 mammary xenografted tumor-bearing mice were infused with ADM-coated PMNP (ADM-PMNP). ADM use in chemotherapy is limited due to systemic toxicity and it is therefore an excellent model drug for evaluation of the potentially utility of our PMNP platform. […] This ADM dose is 5-20 times lower than doses of free ADM commonly used for in animal studies and similar to doses used clinically. The 4-day treatment achieved a 9-fold reduction in tumor mass (FIG. 8). Tumor rebound upon drug termination confirmed specificity of the drug effect. […] The necrosis was confirmed histologically (FIG. 9Bd-f). […]"}, "[5]": {"experiment": "Histopathological analysis of multiple tissues (toxicity)", "type": "in vivo, mice", "details": "same dose (1 mg/kg BW)", "description": "FIGS. 11(A-B). Systemic effect of the treatment. (A) Representative H&E staining of tissue sections from ADM-PMNP injected mice (1 mg/kg BW)(A). (B) inflammation and hyperplasia were found in colon from mice treated with free ADM (B-left) but not in mice injected with the same dose of ADM-PMNP (B-right)."}, "[6]": {"system": "human breast cancer line, MDA-MB-436", "experiment": "Tumor necrosis in xenografted human breast cancer", "type": "in vivo, mice", "details": "1.0 mg/kg"}}}
{"compound": "COc1cc(/C=C/C(=O)CC(=O)/C=C/c2ccc(O)c(OC)c2)ccc1O", "note": "[Curcumin]", "values": [{"measurement": "equivalent Curcumin concentration that decreases cell viability by 20%", "setting": "[1]", "result": 5, "unit": "µM"}]}
{"compound": "CNC[C@H](O)[C@@H](O)[C@H](O)[C@H](O)CO.CNC[C@H](O)[C@@H](O)[C@H](O)[C@H](O)CO.O=C([O-])CN(CCN(CC(=O)[O-])CC(=O)O)CCN(CC(=O)[O-])CC(=O)O.[Gd+3]", "values": [{"measurement": "persistence of MRI contrast", "setting": "[2]; FIG. 4", "result": "short lived"}, {"measurement": "distribution of contrast agent by MRI", "setting": "[2]; within a short time, no magnetic field", "result": "concentrates in the bladder"}]}
{"compound": "melanin", "values": [{"measurement": "radiation damage in irradiated legs", "setting": "[3]", "result": "prevent radiation damage"}]}
{"compound": "COc1cccc2c1C(=O)c1c(O)c3c(c(O)c1C2=O)C[C@@](O)(C(=O)CO)C[C@@H]3O[C@H]1C[C@H](N)[C@H](O)[C@H](C)O1", "note": "[Adriamycin, doxorubicin]", "values": [{"measurement": "anti-tumor effect", "setting": "[4]", "result": "relatively ineffective"}, {"measurement": "colon histology", "setting": "[5]", "result": "colonic inflammation and hyperplasia"}, {"measurement": "tumor necrosis", "setting": "[6]", "result": "smaller necrotic lesions"}]}
